Data published in ChEMBL document CHEMBL5528070, “Design and Synthesis of Dual-Target Inhibitors Targeting Androgen Receptors and Glucocorticoid Receptors to Overcome Antiandrogen Resistance in Castration-Resistant Prostate Cancer” (J Med Chem, 2024).
pIC50: −log10 of the molar value.

How the values were obtained:
Glucocorticoid receptor [1] = molecular target: T1, Glucocorticoid receptor (Homo sapiens, UniProt P04150); conditions: pc-3
T1 sequence (P04150 whole entry): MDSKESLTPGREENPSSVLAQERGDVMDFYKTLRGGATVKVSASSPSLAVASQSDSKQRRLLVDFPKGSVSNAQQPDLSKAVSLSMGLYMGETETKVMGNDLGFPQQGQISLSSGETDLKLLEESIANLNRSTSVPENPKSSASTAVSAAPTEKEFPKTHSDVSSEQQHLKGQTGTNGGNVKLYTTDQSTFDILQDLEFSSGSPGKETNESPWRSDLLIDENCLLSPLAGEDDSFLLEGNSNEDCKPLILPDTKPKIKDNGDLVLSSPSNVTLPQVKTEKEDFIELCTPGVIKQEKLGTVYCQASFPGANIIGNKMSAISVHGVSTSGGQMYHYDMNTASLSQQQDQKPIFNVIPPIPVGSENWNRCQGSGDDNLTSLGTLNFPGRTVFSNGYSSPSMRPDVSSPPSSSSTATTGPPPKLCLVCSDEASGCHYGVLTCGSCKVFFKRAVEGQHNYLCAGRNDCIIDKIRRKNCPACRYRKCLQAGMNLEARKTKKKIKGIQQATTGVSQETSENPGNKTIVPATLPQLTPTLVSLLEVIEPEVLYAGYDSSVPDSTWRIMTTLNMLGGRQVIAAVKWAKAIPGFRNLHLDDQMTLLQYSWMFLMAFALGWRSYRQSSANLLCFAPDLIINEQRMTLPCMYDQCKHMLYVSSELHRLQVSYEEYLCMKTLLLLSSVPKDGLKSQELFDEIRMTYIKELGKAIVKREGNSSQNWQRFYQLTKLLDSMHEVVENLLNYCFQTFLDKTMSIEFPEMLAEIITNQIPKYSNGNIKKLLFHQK
Description: (§1) Inhibition of glucocorticoid receptor transcription in human PC-3 cells cotransfected with MMTV-luc and renilla plasmid at incubated for 24 hrs by Dual luciferase assay

Androgen receptor [2] = molecular target: T2, Androgen receptor (Homo sapiens, UniProt P10275)
T2 sequence (P10275 whole entry): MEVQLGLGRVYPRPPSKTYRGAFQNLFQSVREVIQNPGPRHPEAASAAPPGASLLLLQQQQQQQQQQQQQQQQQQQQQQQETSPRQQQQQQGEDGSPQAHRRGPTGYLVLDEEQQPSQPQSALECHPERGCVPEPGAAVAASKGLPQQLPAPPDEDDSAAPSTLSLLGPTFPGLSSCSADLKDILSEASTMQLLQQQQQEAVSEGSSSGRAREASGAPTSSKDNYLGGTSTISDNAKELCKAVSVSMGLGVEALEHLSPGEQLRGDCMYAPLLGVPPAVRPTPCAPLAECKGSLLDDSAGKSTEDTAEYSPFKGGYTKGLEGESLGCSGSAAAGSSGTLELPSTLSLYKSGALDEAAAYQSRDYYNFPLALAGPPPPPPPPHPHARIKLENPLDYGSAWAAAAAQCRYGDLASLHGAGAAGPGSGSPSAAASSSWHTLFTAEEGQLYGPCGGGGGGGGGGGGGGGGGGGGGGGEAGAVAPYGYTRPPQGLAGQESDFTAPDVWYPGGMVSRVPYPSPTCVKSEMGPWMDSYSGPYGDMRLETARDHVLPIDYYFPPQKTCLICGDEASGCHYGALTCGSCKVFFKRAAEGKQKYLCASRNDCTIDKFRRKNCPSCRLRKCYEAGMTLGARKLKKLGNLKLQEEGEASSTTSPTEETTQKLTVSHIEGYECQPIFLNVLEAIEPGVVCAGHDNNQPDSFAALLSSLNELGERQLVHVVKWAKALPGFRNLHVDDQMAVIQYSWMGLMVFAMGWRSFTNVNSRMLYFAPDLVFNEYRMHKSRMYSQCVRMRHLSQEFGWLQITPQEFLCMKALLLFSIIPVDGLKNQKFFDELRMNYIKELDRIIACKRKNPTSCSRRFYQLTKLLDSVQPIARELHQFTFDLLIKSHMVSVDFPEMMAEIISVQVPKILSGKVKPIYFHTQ

LNCaP = assay: Antiproliferative activity against human LNCaP cells assessed as reduction in cell viability measured after 72 hrs by CCK-8 method
LNCaP C4-2 = assay: Antiproliferative activity against human C4-2 cells assessed as reduction in cell viability measured after 72 hrs by CCK-8 method; conditions: LNCaP C4-2, 72 h
DU-145 = assay: Antiproliferative activity against human DU-145 cells assessed as reduction in cell viability measured after 72 hrs by CCK-8 method; conditions: DU-145, 72 h
PC-3 = assay: Antiproliferative activity against human PC-3 cells assessed as reduction in cell viability measured after 72 hrs by CCK-8 method; conditions: PC-3, 72 h
[3] = Antiproliferative activity against African green monkey COS-7 cells assessed as reduction in cell viability measured after 72 hrs by CCK-8 method; conditions: chlorocebus aethiops
CWR22R = assay: Antiproliferative activity against human 22Rv1 cells assessed as reduction in cell viability measured after 72 hrs by CCK-8 method; conditions: 22Rv1, 72 h
Androgen receptor [4] = molecular target: T2, Androgen receptor; assay: Antagonist activity at androgen receptor in human LNCaP cells incubated for 24 hrs by luminescence based firefly luciferase assay
Glucocorticoid receptor [5] = molecular target: T1, Glucocorticoid receptor
Description: as §1

Q: With `CNC(=O)c1ccc(N2C(=S)N(c3ccc(C#N)c(C(F)(F)F)c3)C(=O)C2(C)C)cc1F` [ENZALUTAMIDE] as the compound, how does the IC50 (Glucocorticoid receptor [1]) read?
A: Not Active

Q: With `CCOC(=O)c1ccc(NC(=O)c2ccc(S(=O)(=O)Nc3ccc(C)cc3)cc2)s1` as the compound, how does the pIC50 (Androgen receptor [2]) read?
A: 6.92

Q: With `O=C(Nc1ccc(C(=O)NC2CC2)s1)c1cccc(S(=O)(=O)N2CCCc3ccccc32)c1` as the compound, how does the pIC50 (Androgen receptor [2]) read?
A: 6.70

Q: With `CCOC(=O)c1ccc(NC(=O)c2cccc(S(=O)(=O)N3CCCc4ccccc43)c2)s1` as the compound, how does the pIC50 (Androgen receptor [2]) read?
A: 5.77

Q: Which CC50 (LNCaP) does the source give for `CNC(=O)c1ccc(N2C(=S)N(c3cnc(C#N)c(C(F)(F)F)c3)C(=O)C23CCC3)cc1F` [APALUTAMIDE] here?
A: 9.72 µM

Q: What about the CC50 (LNCaP C4-2) of the same compound?
A: 41.7 µM

Q: And the CC50 (DU-145)?
A: > 50 µM

Q: What about the CC50 (PC-3) of the same compound?
A: > 50 µM

Q: And the CC50 at 72 h [3]?
A: > 50 µM

Q: And the CC50 (CWR22R)?
A: > 50 µM

Q: With `CCc1cccc(NS(=O)(=O)c2cc3c4c(c2)CCC(=O)N4CCC3)c1` as the compound, how does the pIC50 (Androgen receptor [4]) read?
A: 6.40

Q: Which CC50 (LNCaP) does the source give for `CC(O)c1cc(C(=O)N[C@@H](C)Cn2ccc(-c3ccc(C#N)c(Cl)c3)n2)n[nH]1` (stereo not given in full) [DAROLUTAMIDE] here?
A: 7.04 µM

Q: What about the CC50 (LNCaP C4-2) of the same compound?
A: 18.8 µM

Q: And the CC50 (DU-145)?
A: > 50 µM

Q: What about the CC50 (PC-3) of the same compound?
A: > 50 µM

Q: What about the CC50 at 72 h [3] of the same compound?
A: > 50 µM

Q: What about the CC50 (CWR22R) of the same compound?
A: > 50 µM

Q: With `Cc1ccc(NC(=O)c2ccc(NC(=O)c3ccc(S(=O)(=O)N4CCCc5ccccc54)cc3)s2)cc1` as the compound, how does the pIC50 (Androgen receptor [2]) read?
A: < 5.30

Q: With `CCOC(=O)c1ccc(NC(=O)c2cccc(S(=O)(=O)Nc3ccc4ccccc4c3)c2)s1` as the compound, how does the pIC50 (Glucocorticoid receptor [5]) read?
A: < 5.30

Q: With `O=C(Nc1ccc(C(=O)NC23C[C@H]4C[C@H](C2)C[C@@H](C3)C4)s1)c1cccc(S(=O)(=O)N2CCCc3ccccc32)c1` as the compound, how does the pIC50 (Androgen receptor [2]) read?
A: 6.92
